Holding throughout (assay type): binding, human
Experiment [1] relates to PELI1/2. The experiment is described as follows: Biotinylated peptide pull-down from HeLa nuclear extracts, Western blot for PELI1/2. The conditions noted are these: biotinylated peptide on streptavidin beads, 4 h at 4°C, SDS–PAGE and Western blot. Here is the method: (§1) Streptavidin-coupled Dynabeads MyOne Streptavidin T1 (Invitrogen) were washed four times with PBS pH 7.4. To conjugate the Dynabeads with biotinylated peptides (21st Century Biochemicals, Inc.), 30 μl of beads were incubated with 0.2 μmol of each peptide with end-over-end rotation for 90 min at RT. Conjugated Dynabeads were then washed once with PBS and 3 × 2 min with 0.1% BSA in PBS. HeLa nuclear extracts (Ipracell) were diluted 1:1 in 2X Dilution buffer (100 mM NaCl, 10 mM NaF, 0.2 mM EDTA, 0.4% Igepal CA-630, 20 mM HEPES-KOH pH 7.4) supplemented with complete protease inhibitor cocktail (Roche), and cleared by centrifugation at 16,000g for 15 min at 4°C. Purified GST-PELI2-FHA recombinant protein was also diluted in 2X Dilution buffer containing protease inhibitors. MDC1-[p]TQXF peptide-conjugated Dynabeads were incubated either with clarified HeLa nuclear extracts for 4 h or with purified GST-PELI2-FHA for 5 h. H2AX-[p]S139 peptide-conjugated Dynabeads were incubated with clarified HeLa nuclear extracts for 4 h. In all the cases, incubation was performed with end-over-end rotation at 4°C. Beads were washed three times with Peptide pull-down buffer (50 mM NaCl, 50 mM KCl, 5 mM NaF, 0.1 mM EDTA, 0.2% Igepal CA-630, 10% glycerol, 20 mM HEPES-KOH pH 7.4) supplemented with complete protease inhibitor cocktail (Roche). Then, they were either resuspended in Peptide pull-down buffer and brought to the Functional Genomics Center of the University of Zurich (FGCZ) for further mass spectrometry, or elution was carried out in 2X SDS sample buffer (100 mM DTT, PLD001; Geneaid) for SDS–PAGE. […]
(§2) Adjusted volume (intensity) of Western blot bands was calculated with Image Lab (Bio-Rad, Image Lab Software Version 6.1, Bio-Rad Laboratories, Inc.) for every biotinylated p-peptide from the MDC1-[p]TQXF peptide pull-down from HeLa nuclear extracts, as a way of analyzing the binding affinity of either RNF8 or PELI1/2 for each pTQXF cluster. […]
In general terms: In western blotting, separated proteins are transferred to a membrane and probed.

The subject of experiment [2] is GST-PELI2-FHA. The experiment in a line: Biotinylated peptide pull-down of purified recombinant GST-PELI2-FHA. The conditions noted are these: biotinylated peptide on streptavidin beads, 5 h at 4°C, SDS–PAGE, protein stain. Here is the method:
For recombinant human PELI2-FHA expression in bacteria and further purification, the GST-tagged PELI2-FHA construct was transformed into E. coli BL21(DE3)pLysS Competent Cells (Promega). 100 μl of the transformation mixture were used to inoculate a 500 ml flask containing 100 ml of Luria–Bertani broth (LB) supplemented with carbenicillin (100 μg/ml) and chloramphenicol (34 μg/ml), and inoculated culture was incubated overnight at 27°C without shaking. On the next day, the overnight culture was grown at 37°C in an orbital shaking incubator until the optical density at 600 nm reached 0.6–0.8, moment when culture was removed from the incubator and rapidly cooled on ice to 25°C. Recombinant protein expression was induced by the addition of 0.4 mM isopropyl β-D-1-thiogalactopyranoside (IPTG) and incubation of the culture for a further 4 h at 25°C shaking at 220 rpm was performed. Cells were then harvested by centrifugation, and the resulting pellet was stored at −80°C until required. […] Protein concentration was measured after every purification step. […]

Experiment [3] has as its system RNF8. The experiment in a line: Biotinylated peptide pull-down from HeLa nuclear extracts, Western blot for RNF8. The conditions noted are these: biotinylated peptide on streptavidin beads, 4 h at 4°C, SDS–PAGE and Western blot. Here is the method:
as §1, with “h.” for “h. In all the cases, incubation was performed with end-over-end rotation at 4°C. Beads were washed three times with Peptide pull-down buffer (50 mM NaCl, 50 mM KCl, 5 mM NaF, 0.1 mM EDTA, 0.2% Igepal CA-630, 10% glycerol, 20 mM HEPES-KOH pH 7.4) supplemented with complete protease inhibitor cocktail (Roche). Then, they were either resuspended in Peptide pull-down buffer and brought to the Functional Genomics Center of the University of Zurich (FGCZ) for further mass spectrometry, or elution was carried out in 2X SDS sample buffer (100 mM DTT, PLD001; Geneaid) for SDS–PAGE.”
as §2

Experiment [4] relates to MDC1. The experiment is described as follows: Biotinylated H2AX-pS139 peptide pull-down from HeLa nuclear extracts, Western blot for MDC1. The conditions noted are these: biotinylated peptide on streptavidin beads, 4 h at 4°C. Here is the method: as §1, with “(Roche).” for “(Roche). Then, they were either resuspended in Peptide pull-down buffer and brought to the Functional Genomics Center of the University of Zurich (FGCZ) for further mass spectrometry, or elution was carried out in 2X SDS sample buffer (100 mM DTT, PLD001; Geneaid) for SDS–PAGE.”

Turning to “Biotin-SGS-CLRESEDSE[p]TQPFDT-NH2 [biotinylated pT765, synthetic biotinylated MDC1 TQXF phosphopeptide for pull-downs]”, the “PELI1/2 pulled down by the peptide (in words)” value (shortened to “PELI1/2 pulled down”) in experiment [1] is listed as “more PELI1/2 than RNF8”.

On to “Biotin-SGS-LDEPWEVLA[p]TQPFCL-NH2 [biotinylated pT752, synthetic biotinylated peptide, human MDC1 residues 743–757, phospho-threonine at T752]”, for which the “purified GST-PELI2-FHA pulled down by the peptide (in words)” value in experiment [2] is “specifically pulled down”. The “RNF8 pulled down by the peptide (in words)” value in experiment [3] is given as “large quantities”.

For “Biotin-SGS-DSEDLDLQA[p]TQCFLE-NH2 [biotinylated pT699, synthetic biotinylated MDC1 TQXF phosphopeptide for pull-downs]”, the “PELI1/2 pulled down” value in experiment [1] was “highest quantities”. In experiment [3], the “RNF8 pulled down by the peptide (in words)” value is “highest quantities”.

For the substance “Biotin-SGS-TVGPKAPSGGKKATQA[p]SQEY-OH [biotinylated H2AX-pS139, biotinylated γH2AX phosphopeptide for pull-downs]”, the “MDC1 pulled down by the peptide (in words)” value in experiment [4] was “efficiently pulled down”.

With “Biotin-SGS-AVQSMEDEP[p]TQAFML-NH2 [biotinylated pT719, synthetic biotinylated MDC1 TQXF phosphopeptide for pull-downs]”, the “purified GST-PELI2-FHA pulled down by the peptide (in words)” value in experiment [2] is reported as “specifically pulled down”. The “PELI1/2 pulled down” value in experiment [1] is given as “specifically pulled down”.

The record behind these values is publication PMC11884936, “MDC1 mediates Pellino recruitment to sites of DNA double-strand breaks” (Life Science Alliance, 2025).
